Source: a melting point compilation (Tetko et al.; mined from patent text by program, amines drawn as free bases though some values may be those of a salt)

SMILES	melting point
Cc1c(C)c2c(c(C)c1O)CC(CCI)O2 (racemic)	96 to 97 °C
COCCNC(=O)COc1ccn2nc(-c3ccccc3)c(-c3ccc(=O)n(C(C)C)n3)c2c1	144 to 146 °C
COc1cccc(OC)c1-c1cc(C(=O)NC2(C(=O)O)C3CC4CC(C3)CC2C4)nn1-c1ccc([N+](=O)[O-])cc1C (stereo not given)	150 °C
CCOC(=O)c1ccc(Cn2c(NC3CCN(C(=O)OCC)CC3)nc3ccccc32)o1	136 °C
CCn1nc(-c2nc(C(=O)O)c(NCc3ccc(OC)cc3)nc2-c2ccccc2)ccc1=O	> 250 °C
O=C(O)[C@H](Cc1ccc(C(F)(F)F)c(F)c1)[C@@H](O)c1ccc(F)cc1 (racemic)	74 to 75 °C
COc1cc(C(C)C)c2c(c1)S(=O)(=O)N(COc1cc(C)nn1C)C2=O	146 to 147 °C
Cc1ccc(Cl)c(Nc2ccccc2C(N)=S)c1Cl	134 to 136 °C
COc1cc(C)c(NCCO)cc1N	148 °C
CN1CCc2c(C3=CC(=O)CCC3)c(F)cc3c(=O)c(C(=O)O)cn1c23	> 300 °C
COc1ccc(CCN2CCC(=C3c4ccccc4CCn4ncnc43)CC2)cc1	129 °C
COC(=O)Nc1ccc(OCc2nc3ccccc3s2)cc1	142 to 144 °C
CC(C)(C)OC(=O)CN1CCSC1=NC#N	143 to 144 °C
CCOC(=O)C(NC(=O)CNC(=O)CCl)C(=O)OCC	104 to 105 °C
COc1cc2c(c3c1OC(C)(C)C3)C(c1cccc(NC(=O)Nc3ccccn3)c1)=NC(C)(C)C2	189 to 191 °C
CCCc1nc2ccc(N)cc2n1Cc1ccccc1Cl	121 to 122 °C
CS(=O)(=O)Nc1cccc(S(=O)(=O)N2CCOc3c(N4CCNCC4)cccc32)c1	158 to 164 °C
Cc1ccccc1-c1coc2cc(O)cc(Cl)c2c1=O	> 290 °C
COc1cn(-c2ccc(N3CC(F)(F)C(F)(F)C3)cc2F)nc(-c2ccnn2-c2ccccc2)c1=O	175 to 177 °C
COc1cccc([C@H]2O[C@H](CC(=O)Nc3ccc(CCC(=O)O)cc3)C(=O)N(CC(C)(C)COC(C)=O)c3ccc(Cl)cc32)c1OC	144 to 146 °C
Cc1cc(S(=O)(=O)N2c3ccccc3-c3ccccc3C2C)ccc1O (stereo not given)	186 to 188 °C
CCc1nn(C2CCCC2)c2cc(C(=O)OC)ccc12	106 to 109 °C
C#Cc1ccc(OC)c(OCC)c1	95 to 96 °C
CC(C)c1ccc(NC(=O)Cn2cnc3[nH]c(=O)[nH]c(=O)c32)cc1	320 to 325 °C

SMILES	melting point
CSc1nnc(Sc2ncnc3c(C)csc23)s1	163 to 166 °C
O=C(Oc1cc([N+](=O)[O-])c(F)cc1Cl)Oc1cc([N+](=O)[O-])c(F)cc1Cl	165 to 166 °C
CCOc1ccc(S(=O)(=O)N2CCN(C)CC2)cc1C#N	130 to 131 °C
CN1C(c2ccc(F)cc2)=NC(C(F)(F)F)(C(F)(F)F)C1NC(=O)c1ccc(N2CCCCC2)cc1 (stereo not given)	128 to 129 °C
CC(=O)OC(c1ccc(Cl)c(Cl)c1)C(Cl)(Cl)Cl (stereo not given)	85 to 86 °C
CNC(=S)NCCCCCCc1csc(NC(=N)N)n1	162 to 164 °C
CCOC(=O)n1c(C(=O)c2cccc(Cl)c2)c(NC(=O)CC)c2ccc(Cl)cc21	189 to 191 °C
CC(=O)SC(CC(=O)c1cccc(C)c1)C(=O)O (stereo not given)	74 to 76 °C
COc1cc2oc(=O)c(C)c(C)c2cc1OCCN1CCN(c2cccc3[nH]ccc23)CC1	201 to 202 °C
CC(=O)Nc1ccc(Sc2ccccc2)cc1	142 to 144 °C
COc1ccc(Cn2ccc3c(-c4ccco4)ncnc32)cc1	130 to 131 °C
COc1ccc2cc3c(c(-c4ccc(C)cc4)c2c1)C(=O)NC3=O	298 to 301 °C
C=C[C@H](C)[C@@](N)(C(N)=O)c1ccccc1 (relative stereo)	90 °C
CC(C)CN1C(=O)C2CC(c3ccc([N+](=O)[O-])cc3)(C2)C1=O	136 to 137 °C
CS(=O)(=O)Nc1ccc2c(c1)CCN(Cc1ccc3cc(NS(C)(=O)=O)ccc3n1)CC2	207 to 210 °C
Fc1ccc2[nH]cc(CCCNCCOc3cccc4[nH]ccc34)c2c1	70 to 73 °C
COCCCNc1c([N+](=O)[O-])cnc2ccccc12	93 to 95 °C
CCOC(=O)C(C(=O)OCC)C(=O)c1ccc(C(F)(F)F)cc1[N+](=O)[O-]	59 to 60 °C
O=C(N[C@@H](Cc1ccc2ccccc2c1)[C@H](O)CCl)OCc1ccccc1	173 to 174 °C
CC(C)(C)NCC(O)c1ccc(N)c(C#N)c1Cl (stereo not given)	85 to 88 °C
CC(Cc1cccc([N+](=O)[O-])c1)[N+](=O)[O-] (stereo not given)	56 to 58 °C
c1ccc(CSc2nccn2-c2ccccn2)cc1	76 to 77 °C
O=C(O)c1c[nH]c(Br)c1-c1ccc(Cl)cc1	> 205 °C
CON=C(C(=O)NN)c1ccccc1COc1cc(C)ccc1C	124 to 126 °C

SMILES	melting point
ClCc1ccc2c(c1)Cc1cccnc1O2	172 to 174 °C
CC(=O)Nc1cccc(Nc2ncc3ccc(-c4cccn4CCC#N)n3n2)c1	131 to 139 °C
CC(=O)OC1CCC2C3CCC4=CC(=O)C=C(C)C4(C)C3CCC12C (stereo not given)	144 °C
C=CCOc1ccc(C(=O)C=Cc2cc(OC)ccc2OC)cc1	86 to 87 °C
NC(c1ccccc1)c1ccc(C(N)c2ccc(C(N)c3ccccc3)cc2)cc1 (stereo not given)	182 to 185 °C
Cn1cc(OS(C)(=O)=O)c(=O)c2ccc(C(F)(F)F)cc21	218 °C
CC(=O)OC1CC2CCC3C(CCC4(C)C(C(C)=O)CCC34)C2(C)CC1Br (stereo not given)	142 to 146 °C
CC(C)OCCOc1ccc(-c2ccc3c(c2)C=C(C(=O)Nc2ccc(CN(C)C4CCOCC4)cc2)CCS3(=O)=O)cc1	214 to 215 °C
CC(NC(=O)Cc1cc(F)cc(F)c1)C(=O)NC1(c2ccccc2)NC(=O)Cc2ccccc21 (stereo not given)	200 to 205 °C
CCn1c(=O)c2[nH]c(/C=C/c3ccc(F)c(F)c3)nc2n(CC)c1=O	> 300 °C
Cc1cccc(NC(=O)NC2N=C(C3CCCCC3)c3ccccc3N(Cc3ccccn3)C2=O)c1 (stereo not given)	157 to 163 °C
CCCCCCCCOc1ccc(C(=O)Oc2ccc(C3CCC(O)CC3)cc2)cc1 (stereo not given)	111 to 112 °C
O=C(OC1CCCCCCC1)c1ncn2c1[C@@H]1CCCN1C(=O)c1c(Cl)cccc1-2	183 to 184 °C
Oc1ncc(-c2cccc(F)c2)cn1	259 to 261 °C
CCOC(=O)C1=C(c2ccc(-c3ocnc3C)cc2)NC(C)=C(C(=O)Nc2ccccn2)C1c1ccccc1Cl (stereo not given)	176 to 179 °C
CON=CCNC(=O)c1c(I)cccc1C(=O)Nc1ccc(C(F)(F)C(F)(F)F)cc1C	110 °C
Nc1cc(=O)n(Cc2ccc([N+](=O)[O-])cc2)[nH]1	182 °C
O=C(C=Cc1ccccc1)NCc1ccc(C(=O)O)cc1	238 to 239 °C
Cn1nc(C(F)(F)F)c(CS(=O)(=O)C2=NOC(C)(C)C2)c1Cl	115 to 116 °C
COc1cc(CO)cc(OC)c1OCc1nc(-c2ccccc2)oc1C	113 to 114 °C
O=C(CO)c1ccc(-c2ccccc2)cc1	130 to 132 °C
COc1cc(C=c2[nH]c(=O)c(=Cc3ccc(OCc4ccccc4)cn3)[nH]c2=O)cc(OC)c1	237 to 239 °C
